Measured values taken from paper PMC10380584, “Functional Characterization of Pheromone Receptors in the Beet Webworm, Loxostege sticticalis (Lepidoptera: Pyralidae)” (Insects, 2023).

Tested on: T1, LstiPR2/LstiORco
T1 construct: full-length LstiPR2 (ORF 1263 bp, printed 421 aa) co-expressed with LstiORco (cRNA 1:1) in Xenopus laevis oocytes, pT7Ts vector; cloned from male antennae; with Odorant receptor coreceptor
Assay: two-electrode voltage clamp, Xenopus oocytes
Format: cell-based, Loxostege sticticalis
Details: agonist; co-expressed with LstiORco; holding potential -80 mV; Ringer's buffer pH 7.6
Excerpt: two-electrode voltage clamp, Xenopus oocytes on LstiPR2/LstiORco | LstiPR2/LstiORco was sensitive to E11-14:OAc

## CC/C=C/CCCCCCCCCCOC(C)=O [E11-14:OAc, (E)-11-tetradecenyl acetate]
  EC50: 12.5 µM
